“Also recorded” adds a separate entry of the source.
Assays:
[1] = test system: MAP3K7- and CHD1-KD PC-3 cells; experiment: MTS viability / IC50 analysis in MAP3K7- and CHD1-KD PC-3 cells; format: cell-based, human; conditions: MTS assay, log 2(IC50ratio)
Experimental: FIGS. 14A-G. RB functions as a negative regulator of NFκB signaling. (A) PC-3 infected with lentivirus for indicated shRNAs were treated with different chemicals and cells viability was measured by MTS assay. Heat map showing the normalized IC50 ratio (log 2(IC50ratio)). (B-D) PC-3 cells infected with lentivirus expressing indicated shRNAs were harvested for western blots (B), FACS (C), and RT-qPCR (D). All data were shown as mean values±SD (n=3). ns, not significant, * P<0.05, ** P<0.01, *** P<0.001. (E, F) PC-3 cells infected with indicated lentivirus were injected s.c. into NSG mice, and tumors were harvested and photographed at day 21 (E). Data in (F) were shown as means±SD (n=5). ns, not significant, * P<0.05. (G) A model depicting RB functions as a negative regulator of NFκB (p65/p50), providing an explanation of the finding that depletion of RB offsets the death of PTEN-null cells induced by either MAP3K7 or CHD1 deletion.
MAP3K7 or CHD1 was knocked down (KD) in PTEN-null PC-3 cells followed by treatment with an array of small molecule inhibitors for a number of cancer relevant pathways.

RB-p65 interaction = experiment: Co-immunoprecipitation of RB and p65 in PC-3 cells; format: cell-based, human; conditions: TNFα 20 ng/mL, 24 hours
From the text: FIGS. 2A-H. RB phosphorylation by CDK4 enhances RB interaction with NFκB protein p65. (A) Western blot analysis of reciprocal co-immunoprecipitation of endogenous RB1 and p65 proteins in PC-3 cells. (B) Schematic diagram depicting a set of p65 recombinant protein constructs. Western blot analysis of RB proteins in PC-3 cells whole cell lysate pulled down by GST or GST-p65 recombinant proteins. Stars indicated expected molecular weight. (C) Western blot analysis of RB proteins in PC-3 whole cell lysate pulled down by GST or GST-p65 recombinant proteins. Cell lysates were treated with or without λ, phosphatase before GST-pull down. (D) Western blot analysis of PC-3 whole cell lysates (WCL) and co-IP samples. Cell lysates were treated with or without λ, phosphatase before IP. (E) Western blot analysis of WCL and co-IP samples in DU145 cells 24 hours after transfected with indicated plasmids. (F) Western blot analysis of WCL and co-IP samples in PC-3 cells. Cells were treated with or without palbociclib (5 μM) for 24 hours before IP. […] Western blot bands of co-IPed RB protein were quantified by ImageJ software and normalized to the quantified value of IP-ed RB in cells without TNFα treatment. […] Western blot bands of p65 protein were quantified by ImageJ software and normalized to the quantified value of p65 protein in cell lysate without immuno-depletion (preimmune sample). […]

p65-IκBα interaction = experiment: Co-immunoprecipitation of p65 and IκBα in PC-3 cells; format: cell-based, human; conditions: TNFα 20 ng/mL, 24 hours
[2] = test system: NF-κB site of the PD-L1 promoter; experiment: EMSA with biotin-labeled PD-L1-prom oligonucleotide and PC-3 nuclear extracts; format: cell-based, human; conditions: PC-3 nuclear extract
From the text: FIGS. 11A-H. (A) Heatmap showing differentially expressed genes (FDR<0.01) between palbociclib treatment versus DMSO and knockdown RB1 versus control. Gene expression values (FPKM) were Z-score normalized. FPKM, Fragments Per Kilobase of transcript per Million mapped reads. (B) UCSC Genome Browser screenshots of meta-analysis of published RB ChIP high throughput sequencing (ChIP-seq) data showing RB binding to CD274 (PD-L1) gene locus in K562 cells. PD-L1-prom oligonucleotide DNA containing NF-κB binding sequence was shown in the RB binding peak in the PD-L1 gene, the corresponding mutant PD-L1-prom oligonucleotide DNA was shown below. FIG. 11B discloses SEQ ID NOS 279-280, respectively, in order of appearance. (C) ChIP-qPCR analysis of RB binds at the PD-L1 promotor in PC-3 cells. All data were shown as mean values±SD (n=3). *** P<0.001. (D) ChIP-reChIP analysis examining the co-localization of p65 and RB in the PD-L1 promoters. All data were shown as mean values±SD (n=3). ** P<0.01. […]
FIGS. 21A-N. Effect of RB depletion, cell cycle, and RB-N S249/T252 phospho-mimicking peptide on PD-L1 expression in cell lines of various cancer types. […] 48 hours after infection, PD-L1 expression was determined by western blotting (A), RT-qPCR (B), and FACS (C). […] (D) Pd-l1 protein and mRNA levels were determined by western blotting in primary SKO and DKO mouse prostate tumor cell lines. […]

p65 NFκB protein = target: T1, p65 NFκB protein (human, UniProt Q04206 1-551); experiment: GST pull down from PC-3 whole cell lysate, western blot (FIG. 2H)
T1 construct: which one stood in the assay is told under assay; also called endogenous p65; in vitro transcribed and translated p65 (pCMV4 p65)
Experimental: Cells were lysed with IP buffer (50 mM Tris-HCl, pH 7.4, 150 mM NaCl, 1% Triton X-100, 1% sodium deoxycholate, and 1% protease inhibitor cocktails) on ice for more than 30 minutes. GST fusion proteins were immobilized on glutathione-Sepharose beads (GE Healthcare Lifesciences). After washing with lysis buffer, the beads were incubated with cell lysates overnight at 4° C. overnight. The beads were then washed six times with binding buffer and re-suspended in sample buffer. The bound proteins were subjected to western blotting analysis.

T1 sequence (Q04206 whole entry): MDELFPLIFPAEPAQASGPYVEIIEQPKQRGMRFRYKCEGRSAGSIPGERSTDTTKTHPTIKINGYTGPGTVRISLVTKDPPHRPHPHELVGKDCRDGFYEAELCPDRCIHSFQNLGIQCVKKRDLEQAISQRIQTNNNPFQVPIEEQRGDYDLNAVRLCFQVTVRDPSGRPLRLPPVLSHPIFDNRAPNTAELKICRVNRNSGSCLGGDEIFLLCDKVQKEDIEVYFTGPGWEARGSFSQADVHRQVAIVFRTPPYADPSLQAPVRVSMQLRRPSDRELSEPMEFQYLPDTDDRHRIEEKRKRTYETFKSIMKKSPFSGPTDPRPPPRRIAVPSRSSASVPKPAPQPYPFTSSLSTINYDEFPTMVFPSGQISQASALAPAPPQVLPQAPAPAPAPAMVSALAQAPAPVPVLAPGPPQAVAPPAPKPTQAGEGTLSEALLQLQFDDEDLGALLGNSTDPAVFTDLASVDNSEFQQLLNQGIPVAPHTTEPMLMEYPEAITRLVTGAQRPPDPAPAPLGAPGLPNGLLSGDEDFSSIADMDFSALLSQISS

Cc1ccc(NCCCc2ccccc2)c(N)c1 [JSH-23]
viability of MAP3K7- and CHD1-KD PC-3 cells (normalized IC50 ratio) [1]: further increased viability loss

TNFα
p65-RB interaction in the nucleus (RB-p65 interaction): increased | p65-IκBα interaction (p65-IκBα interaction): decreased | DNA-protein complex (DPC) level at PD-L1-Prom probe [2]: largely enhanced; also recorded: further enhanced

B1: GST-RB-C (other, human, UniProt P06400 793-928, looked up)
chain: PSSPLRIPGGNIYISPLKSPYKISEGLPTPTKMTPRSRILVSIGESFGTSEKFQKINQMVCNSDRVLKRSAEGSNPPKPLKKLRFDIEGSDEADGSKHLPGESKFQQKLAEMTSTRTRMQKQKMNDSMDTSNKEEK
notes: domain: RB-C; not shown: glutathione S-transferase (GST) tag of the fusion
binding result (p65 NFκB protein): no binding

— patent US20210401931A1, “METHODS AND MATERIALS FOR TREATING CANCER” (Mayo Foundation for Medical Education and Research, priority 2018, published 2021)
